Test results as given in ChEMBL document CHEMBL4507302, “Data for DCP probe TP-020” (2021).

Columns and labels:
[1] = system: Tyrosine-protein kinase ABL1 (Homo sapiens), P00519 [Y253F]; settings: Compound concentration 1000.0 nM
[2] = molecular target: RAC-alpha serine/threonine-protein kinase (Homo sapiens) (UniProt P31749); settings: Compound concentration 1000.0 nM
[3] = molecular target: Aurora kinase B (Homo sapiens) (UniProt Q96GD4); settings: Compound concentration 1000.0 nM
[4] = molecular target: Cytoplasmic tyrosine-protein kinase BMX (Homo sapiens) (UniProt P51813); settings: Compound concentration 1000.0 nM
[5] = molecular target: Megakaryocyte-associated tyrosine-protein kinase (Homo sapiens) (UniProt P42679); settings: Compound concentration 1000.0 nM
[6] = molecular target: Serine/threonine-protein kinase MRCK gamma (Homo sapiens) (UniProt Q6DT37); settings: Compound concentration 1000.0 nM
[7] = molecular target: Epidermal growth factor receptor (Homo sapiens) (UniProt P00533); settings: Compound concentration 1000.0 nM
[8] = system: Epidermal growth factor receptor (Homo sapiens), P00533 [UNDEFINED MUTATION]; settings: Compound concentration 1000.0 nM
[9] = system: Epidermal growth factor receptor (Homo sapiens), P00533 [T790M]; settings: Compound concentration 1000.0 nM
[10] = molecular target: Ephrin type-A receptor 8 (Homo sapiens) (UniProt P29322); settings: Compound concentration 1000.0 nM
[11] = molecular target: Ephrin type-B receptor 2 (Homo sapiens) (UniProt P29323); settings: Compound concentration 1000.0 nM
[12] = molecular target: Mitogen-activated protein kinase 4 (Homo sapiens) (UniProt P31152); settings: Compound concentration 1000.0 nM
[13] = molecular target: Focal adhesion kinase 1 (Homo sapiens) (UniProt Q05397); settings: Compound concentration 1000.0 nM
[14] = system: Receptor-type tyrosine-protein kinase FLT3 (Homo sapiens), P36888 [R834Q]; settings: Compound concentration 1000.0 nM
[15] = molecular target: Serine/threonine-protein kinase haspin (Homo sapiens) (UniProt Q8TF76); settings: Compound concentration 1000.0 nM
[16] = molecular target: Insulin receptor-related protein (Homo sapiens) (UniProt P14616); settings: Compound concentration 1000.0 nM
Chain of Insulin receptor-related protein (Homo sapiens) (P14616 27-742 limits assumed): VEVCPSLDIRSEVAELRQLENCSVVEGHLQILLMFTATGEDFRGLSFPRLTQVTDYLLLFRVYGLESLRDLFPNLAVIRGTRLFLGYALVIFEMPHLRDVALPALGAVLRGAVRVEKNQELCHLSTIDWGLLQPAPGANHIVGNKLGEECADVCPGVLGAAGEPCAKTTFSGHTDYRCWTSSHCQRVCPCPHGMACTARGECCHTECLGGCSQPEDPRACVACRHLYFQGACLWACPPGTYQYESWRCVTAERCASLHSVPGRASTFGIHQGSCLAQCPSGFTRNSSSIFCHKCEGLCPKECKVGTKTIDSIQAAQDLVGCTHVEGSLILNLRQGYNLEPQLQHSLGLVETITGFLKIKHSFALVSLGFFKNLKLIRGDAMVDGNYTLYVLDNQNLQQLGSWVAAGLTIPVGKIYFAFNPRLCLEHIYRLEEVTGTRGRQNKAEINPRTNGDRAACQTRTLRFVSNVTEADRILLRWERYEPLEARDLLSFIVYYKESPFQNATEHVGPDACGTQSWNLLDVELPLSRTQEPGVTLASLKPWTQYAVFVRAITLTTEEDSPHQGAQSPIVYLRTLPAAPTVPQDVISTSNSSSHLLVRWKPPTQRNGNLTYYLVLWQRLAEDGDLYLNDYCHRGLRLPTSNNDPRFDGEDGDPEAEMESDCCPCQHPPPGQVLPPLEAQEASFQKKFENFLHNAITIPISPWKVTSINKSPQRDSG
Chain of Insulin receptor-related protein (Homo sapiens) (P14616 747-1297 limits assumed): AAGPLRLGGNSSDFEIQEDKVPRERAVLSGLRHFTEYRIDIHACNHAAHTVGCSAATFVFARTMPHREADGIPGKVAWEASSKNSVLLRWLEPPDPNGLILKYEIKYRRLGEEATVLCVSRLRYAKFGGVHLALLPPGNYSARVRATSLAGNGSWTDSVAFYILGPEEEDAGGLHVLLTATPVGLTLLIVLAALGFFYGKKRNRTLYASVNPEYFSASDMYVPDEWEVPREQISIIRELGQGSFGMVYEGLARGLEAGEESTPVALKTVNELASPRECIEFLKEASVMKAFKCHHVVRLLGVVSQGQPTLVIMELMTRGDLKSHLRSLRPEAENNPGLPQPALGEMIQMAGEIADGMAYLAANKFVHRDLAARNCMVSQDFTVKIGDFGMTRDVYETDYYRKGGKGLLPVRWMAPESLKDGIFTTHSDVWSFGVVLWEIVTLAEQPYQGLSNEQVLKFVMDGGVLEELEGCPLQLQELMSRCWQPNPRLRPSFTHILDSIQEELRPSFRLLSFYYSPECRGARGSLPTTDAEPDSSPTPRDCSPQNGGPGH

[17] = molecular target: Interleukin-1 receptor-associated kinase 3 (Homo sapiens) (UniProt Q9Y616); settings: Compound concentration 1000.0 nM
[18] = molecular target: Interleukin-1 receptor-associated kinase 4 (Homo sapiens) (UniProt Q9NWZ3); settings: Compound concentration 1000.0 nM
[19] = system: Mast/stem cell growth factor receptor Kit (Homo sapiens), P10721 [V559D,V654A]; settings: Compound concentration 1000.0 nM
[20] = molecular target: Serine/threonine-protein kinase MAK (Homo sapiens) (UniProt P20794); settings: Compound concentration 1000.0 nM
[21] = molecular target: Mitogen-activated protein kinase kinase kinase 1 (Homo sapiens) (UniProt Q13233); settings: Compound concentration 1000.0 nM
[22] = molecular target: MAP kinase-interacting serine/threonine-protein kinase 2 (Homo sapiens) (UniProt Q9HBH9); settings: Compound concentration 1000.0 nM
[23] = molecular target: Serine/threonine-protein kinase MRCK beta (Homo sapiens) (UniProt Q9Y5S2); settings: Compound concentration 1000.0 nM
[24] = molecular target: Myosin light chain kinase, smooth muscle (Homo sapiens) (UniProt Q15746); settings: Compound concentration 1000.0 nM
[25] = molecular target: Serine/threonine-protein kinase Nek1 (Homo sapiens) (UniProt Q96PY6); settings: Compound concentration 1000.0 nM
[26] = molecular target: Serine/threonine-protein kinase Nek3 (Homo sapiens) (UniProt P51956); settings: Compound concentration 1000.0 nM
[27] = molecular target: Serine/threonine-protein kinase Nek7 (Homo sapiens) (UniProt Q8TDX7); settings: Compound concentration 1000.0 nM
[28] = molecular target: Platelet-derived growth factor receptor beta (Homo sapiens) (UniProt P09619); settings: Compound concentration 1000.0 nM
Chain of Platelet-derived growth factor receptor beta (Homo sapiens) (P09619 whole entry, canonical isoform): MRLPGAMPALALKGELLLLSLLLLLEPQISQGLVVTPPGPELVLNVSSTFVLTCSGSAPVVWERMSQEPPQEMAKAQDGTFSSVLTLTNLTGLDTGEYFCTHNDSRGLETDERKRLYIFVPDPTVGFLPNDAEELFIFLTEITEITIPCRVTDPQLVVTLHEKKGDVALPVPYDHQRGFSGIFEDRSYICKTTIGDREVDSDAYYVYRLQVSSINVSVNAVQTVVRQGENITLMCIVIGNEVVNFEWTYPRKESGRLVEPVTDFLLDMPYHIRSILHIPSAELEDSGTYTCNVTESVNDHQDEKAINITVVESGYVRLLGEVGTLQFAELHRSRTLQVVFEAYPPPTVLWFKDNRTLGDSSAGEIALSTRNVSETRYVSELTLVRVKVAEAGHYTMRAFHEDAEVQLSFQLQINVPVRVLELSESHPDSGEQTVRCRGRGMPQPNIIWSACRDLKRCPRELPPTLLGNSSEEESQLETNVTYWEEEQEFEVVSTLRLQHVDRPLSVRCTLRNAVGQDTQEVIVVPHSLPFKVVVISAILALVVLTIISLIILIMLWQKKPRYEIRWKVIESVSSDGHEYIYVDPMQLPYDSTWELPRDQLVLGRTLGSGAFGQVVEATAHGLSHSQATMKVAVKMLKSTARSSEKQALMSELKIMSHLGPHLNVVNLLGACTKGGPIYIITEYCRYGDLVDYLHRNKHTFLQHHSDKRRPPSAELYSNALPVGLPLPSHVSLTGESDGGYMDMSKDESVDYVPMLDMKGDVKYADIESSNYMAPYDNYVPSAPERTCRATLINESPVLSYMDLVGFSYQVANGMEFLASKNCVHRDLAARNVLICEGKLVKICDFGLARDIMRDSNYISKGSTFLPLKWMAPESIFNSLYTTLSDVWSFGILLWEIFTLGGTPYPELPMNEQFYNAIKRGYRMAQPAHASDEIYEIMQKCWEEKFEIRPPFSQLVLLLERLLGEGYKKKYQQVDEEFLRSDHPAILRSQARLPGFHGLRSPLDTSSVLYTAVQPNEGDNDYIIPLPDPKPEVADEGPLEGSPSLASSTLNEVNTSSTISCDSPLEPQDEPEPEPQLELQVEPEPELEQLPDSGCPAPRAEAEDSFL

[29] = system: Phosphatidylinositol 4,5-bisphosphate 3-kinase catalytic subunit alpha isoform (Homo sapiens), P42336 [C420R]; settings: Compound concentration 1000.0 nM
[30] = molecular target: Serine/threonine-protein kinase pim-3 (Homo sapiens) (UniProt Q86V86); settings: Compound concentration 1000.0 nM
[31] = molecular target: Phosphatidylinositol 4-phosphate 5-kinase type-1 gamma (Homo sapiens) (UniProt O60331); settings: Compound concentration 1000.0 nM
[32] = molecular target: Serine/threonine-protein kinase PLK2 (Homo sapiens) (UniProt Q9NYY3); settings: Compound concentration 1000.0 nM
[33] = system: Proto-oncogene tyrosine-protein kinase receptor Ret (Homo sapiens), P07949 [V804M]; settings: Compound concentration 1000.0 nM
[34] = molecular target: Rho-associated protein kinase 1 (Homo sapiens) (UniProt Q13464); settings: Compound concentration 1000.0 nM
[35] = molecular target: Ribosomal protein S6 kinase alpha-3 (Homo sapiens) (UniProt P51812); settings: Compound concentration 1000.0 nM
[36] = molecular target: Uncharacterized serine/threonine-protein kinase SBK3 (Homo sapiens) (UniProt P0C264); settings: Compound concentration 1000.0 nM
[37] = molecular target: Serine/threonine-protein kinase 33 (Homo sapiens) (UniProt Q9BYT3); settings: Compound concentration 1000.0 nM
[38] = molecular target: Mitogen-activated protein kinase kinase kinase 7 (Homo sapiens) (UniProt O43318); settings: Compound concentration 1000.0 nM
Chain of Mitogen-activated protein kinase kinase kinase 7 (Homo sapiens) (O43318 whole entry): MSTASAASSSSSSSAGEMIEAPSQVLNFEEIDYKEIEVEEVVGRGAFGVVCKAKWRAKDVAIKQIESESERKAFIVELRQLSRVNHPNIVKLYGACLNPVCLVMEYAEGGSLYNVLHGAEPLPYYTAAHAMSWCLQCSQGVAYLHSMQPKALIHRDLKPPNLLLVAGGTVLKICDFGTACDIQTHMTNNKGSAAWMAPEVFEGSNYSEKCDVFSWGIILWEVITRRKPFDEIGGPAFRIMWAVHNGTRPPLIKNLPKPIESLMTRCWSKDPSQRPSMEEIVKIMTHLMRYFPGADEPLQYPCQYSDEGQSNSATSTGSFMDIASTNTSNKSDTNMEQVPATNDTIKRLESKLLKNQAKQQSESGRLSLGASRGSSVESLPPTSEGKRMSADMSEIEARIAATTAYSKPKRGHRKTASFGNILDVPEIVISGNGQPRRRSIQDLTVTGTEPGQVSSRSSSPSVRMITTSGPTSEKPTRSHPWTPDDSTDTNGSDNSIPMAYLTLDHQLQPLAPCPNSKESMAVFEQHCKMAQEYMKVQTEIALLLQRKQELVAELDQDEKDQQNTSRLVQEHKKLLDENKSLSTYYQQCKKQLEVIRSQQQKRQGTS

[39] = molecular target: Tyrosine-protein kinase receptor TYRO3 (Homo sapiens) (UniProt Q06418); settings: Compound concentration 1000.0 nM
[40] = molecular target: Vascular endothelial growth factor receptor 2 (Homo sapiens) (UniProt P35968); settings: Compound concentration 1000.0 nM
Chain of Vascular endothelial growth factor receptor 2 (Homo sapiens) (P35968 whole entry): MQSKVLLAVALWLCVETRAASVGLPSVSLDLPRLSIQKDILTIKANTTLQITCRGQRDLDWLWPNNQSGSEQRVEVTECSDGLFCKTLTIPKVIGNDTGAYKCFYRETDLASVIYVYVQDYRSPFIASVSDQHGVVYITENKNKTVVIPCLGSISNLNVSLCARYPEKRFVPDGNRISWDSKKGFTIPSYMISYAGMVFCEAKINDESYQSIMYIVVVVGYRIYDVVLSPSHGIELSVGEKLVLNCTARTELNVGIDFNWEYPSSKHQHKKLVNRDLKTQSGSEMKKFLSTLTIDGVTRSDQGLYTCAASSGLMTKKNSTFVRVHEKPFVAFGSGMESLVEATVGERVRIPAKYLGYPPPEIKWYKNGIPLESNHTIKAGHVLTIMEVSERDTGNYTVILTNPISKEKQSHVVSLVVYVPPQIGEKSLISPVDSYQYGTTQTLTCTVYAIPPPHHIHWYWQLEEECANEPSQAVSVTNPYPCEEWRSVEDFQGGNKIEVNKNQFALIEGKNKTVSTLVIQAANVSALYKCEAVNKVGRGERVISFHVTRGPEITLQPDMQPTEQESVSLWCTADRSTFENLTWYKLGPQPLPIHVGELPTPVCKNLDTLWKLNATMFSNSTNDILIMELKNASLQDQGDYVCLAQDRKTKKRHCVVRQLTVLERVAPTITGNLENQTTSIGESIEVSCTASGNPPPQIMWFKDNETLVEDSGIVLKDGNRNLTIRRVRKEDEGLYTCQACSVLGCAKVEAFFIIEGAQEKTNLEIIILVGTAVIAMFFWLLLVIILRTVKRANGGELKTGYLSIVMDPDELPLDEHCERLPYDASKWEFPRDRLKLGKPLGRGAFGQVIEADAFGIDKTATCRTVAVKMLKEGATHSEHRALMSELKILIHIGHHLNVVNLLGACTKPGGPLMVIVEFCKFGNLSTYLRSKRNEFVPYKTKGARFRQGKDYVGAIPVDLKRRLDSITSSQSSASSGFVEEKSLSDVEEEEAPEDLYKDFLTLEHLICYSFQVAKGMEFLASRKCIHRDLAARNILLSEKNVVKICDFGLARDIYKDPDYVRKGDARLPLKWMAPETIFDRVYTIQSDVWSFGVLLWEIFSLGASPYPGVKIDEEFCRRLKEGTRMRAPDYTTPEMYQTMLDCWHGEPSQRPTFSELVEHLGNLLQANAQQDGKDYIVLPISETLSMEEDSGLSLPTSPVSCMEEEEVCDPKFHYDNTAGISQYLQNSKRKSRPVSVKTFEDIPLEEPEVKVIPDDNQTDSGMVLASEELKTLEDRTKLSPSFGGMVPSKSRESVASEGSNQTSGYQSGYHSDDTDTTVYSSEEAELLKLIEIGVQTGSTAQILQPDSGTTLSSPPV

[41] = molecular target: Wee1-like protein kinase 2 (Homo sapiens) (UniProt P0C1S8); settings: Compound concentration 1000.0 nM
[42] = molecular target: Tyrosine-protein kinase Yes (Homo sapiens) (UniProt P07947); settings: Compound concentration 1000.0 nM
Chain of Tyrosine-protein kinase Yes (Homo sapiens) (P07947 2-543 limits assumed): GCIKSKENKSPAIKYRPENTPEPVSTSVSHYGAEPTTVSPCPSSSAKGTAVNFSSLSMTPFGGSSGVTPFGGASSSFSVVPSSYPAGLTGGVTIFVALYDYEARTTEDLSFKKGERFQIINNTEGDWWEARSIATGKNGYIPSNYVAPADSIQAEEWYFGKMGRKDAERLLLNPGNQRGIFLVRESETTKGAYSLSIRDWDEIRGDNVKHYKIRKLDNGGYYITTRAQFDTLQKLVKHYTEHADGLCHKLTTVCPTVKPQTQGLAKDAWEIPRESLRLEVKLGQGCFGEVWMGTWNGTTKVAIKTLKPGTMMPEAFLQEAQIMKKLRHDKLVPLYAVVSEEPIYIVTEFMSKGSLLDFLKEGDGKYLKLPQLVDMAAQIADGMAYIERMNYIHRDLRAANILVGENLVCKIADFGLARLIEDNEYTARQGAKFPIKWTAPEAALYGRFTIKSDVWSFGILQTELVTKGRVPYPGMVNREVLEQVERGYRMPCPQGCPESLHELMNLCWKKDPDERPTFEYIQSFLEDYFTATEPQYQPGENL

[43] = molecular target: 5-hydroxytryptamine receptor 7 (Homo sapiens) (UniProt P34969); settings: Compound concentration 10.0 uM
[44] = molecular target: Sodium-dependent noradrenaline transporter (Homo sapiens) (UniProt P23975); settings: Compound concentration 10.0 uM
[45] = molecular target: Alpha-1D adrenergic receptor (Homo sapiens) (UniProt P25100); settings: Compound concentration 10.0 uM

Structure (SMILES): Nc1cnc(N2CCc3cc(S(=O)(=O)Nc4c(F)cc(Cl)cc4F)cc(N4CCCC4=O)c32)nc1
- residual activity [1]: 94%
- residual activity [2]: 100%
- residual activity [3]: 98%
- residual activity [4]: 100%
- residual activity [5]: 100%
- residual activity [6]: 100%
- residual activity [7]: 82%
- residual activity [8]: 100%
- residual activity [9]: 88%
- residual activity [10]: 100%
- residual activity [11]: 87%
- residual activity [12]: 100%
- residual activity [13]: 99%
- residual activity [14]: 77%
- residual activity [15]: 100%
- residual activity [16]: 100%
- residual activity [17]: 89%
- residual activity [18]: 100%
- residual activity [19]: 100%
- residual activity [20]: 96%
- residual activity [21]: 100%
- residual activity [22]: 100%
- residual activity [23]: 95%
- residual activity [24]: 91%
- residual activity [25]: 46%
- residual activity [26]: 100%
- residual activity [27]: 96%
- residual activity [28]: 100%
- residual activity [29]: 84%
- residual activity [30]: 98%
- residual activity [31]: 75%
- residual activity [32]: 100%
- residual activity [33]: 100%
- residual activity [34]: 96%
- residual activity [35]: 84%
- residual activity [36]: 100%
- residual activity [37]: 80%
- residual activity [38]: 100%
- residual activity [39]: 100%
- residual activity [40]: 81%
- residual activity [41]: 93%
- residual activity [42]: 100%
- inhibition [43]: 0.94%
- inhibition [44]: 18.2%
- inhibition [45]: -2.31%

Structure (SMILES): Cn1nc(C(F)(F)F)cc1-c1cnc(N2CCc3cc(S(=O)(=O)Nc4c(F)cc(Cl)cc4F)cc(N4CCCC4=O)c32)nc1 [TP-020]
- residual activity [1]: 95%
- residual activity [2]: 100%
- residual activity [3]: 86%
- residual activity [4]: 81%
- residual activity [5]: 91%
- residual activity [6]: 100%
- residual activity [7]: 100%
- residual activity [8]: 100%
- residual activity [9]: 94%
- residual activity [10]: 65%
- residual activity [11]: 100%
- residual activity [12]: 100%
- residual activity [13]: 98%
- residual activity [14]: 97%
- residual activity [15]: 68%
- residual activity [16]: 90%
- residual activity [17]: 100%
- residual activity [18]: 82%
- residual activity [19]: 89%
- residual activity [20]: 100%
- residual activity [21]: 70%
- residual activity [22]: 94%
- residual activity [23]: 94%
- residual activity [24]: 100%
- residual activity [25]: 100%
- residual activity [26]: 90%
- residual activity [27]: 100%
- residual activity [28]: 90%
- residual activity [29]: 76%
- residual activity [30]: 100%
- residual activity [31]: 93%
- residual activity [32]: 91%
- residual activity [33]: 98%
- residual activity [34]: 89%
- residual activity [35]: 100%
- residual activity [36]: 79%
- residual activity [37]: 100%
- residual activity [38]: 79%
- residual activity [39]: 100%
- residual activity [40]: 87%
- residual activity [41]: 100%
- residual activity [42]: 99%
- inhibition [43]: 4.51%
- inhibition [44]: 5.69%
- inhibition [45]: -4.04%
